# According to publication PMC8765437, “GSK3640254 Is a Novel HIV-1 Maturation Inhibitor with an Optimized Virology Profile” (Antimicrobial Agents and Chemotherapy, 2022):
# Read-outs that look alike come from different tables or passages of the source.
# System: HIV-1 laboratory strains
# Experiment: Laboratory strains, luciferase activity in CEM-NKR-CCR5-Luc cells
# Type: cell-based
# Procedure: Virus yields were measured in dose-response experiments by either luciferase activity in human T-cells (CEM-NKR-CCR5-Luc), extracellular reverse transcriptase activity in MT-2 cells (T-tropic viruses), or extracellular p24 antigen in PM1 cells (M-tropic viruses).
# Multiple-cycle assays using recombinant viruses or clinical isolates were used to assess MI antiviral activity as described previously ([10]). pNLRepRlucP373S (the P373S change is in the Gag gene and converts an outlier polymorphism in the NL4-3 gene to the prevalent amino acid in the population) plasmids containing SDMs in Gag or gag/pr regions from clinical isolates were transfected into HEK 293T cells, and the supernatant containing recombinant virus was harvested after 4 to 5 days. Virus was used to infect MT-2 cells in the presence of a 3-fold serially diluted compound at a final dimethyl sulfoxide (DMSO) concentration of 1%. The inocula of the reporter viruses were determined based on the luciferase activity detected on day 4 postinfection. The MOI (ratio of infectious virions to target cells) of reporter-free laboratory strains and clinical isolates was 0.005, as derived from a tissue culture infectious dose study. Clinical isolates or reporter-free viruses were examined in the reporter CEM-NKR-CCR5-Luc cells or PBMCs at MOIs ranging from 0.005 to 0.01. Each infection started with a drug-free preincubation of the cell-virus mixtures, performed at 37°C and 5% CO2 for either 1 h at 2 times the final cell density (reporter viruses) or 1 h (reporter-free laboratory strains) or 3 h (clinical isolates) using cell pellets in 0.5 mL of medium. After preincubation, cell-virus mixtures were added to compound-containing 96-well plates for a final cell density of either 10,000 (MT-2 cells for reporter viruses), 20,000 (MT-2 and PM1 cells for reporter-free laboratory strains), 200,000 (PBMCs for clinical isolates), or 500,000 (CEM-NKR-CCR5-Luc for reporter-free laboratory strains) cells per well. The CEM-NKR-CCR5-Luc cell assay was performed in the presence of Polybrene (10 μg/mL). Virus growth was determined on days 4 to 5 postinfection for reporter variants or days 5 to 11 for the other viruses. The reporter viruses were detected by a luciferase assay according to manufacturer protocols (Brite-Glo luciferase kit [Promega] for CEM-NKR-CCR5-Luc cells and Dual-Luciferase Reporter 1000 assay system [Promega] for the other cells), and luminescence was detected on a Wallac Trilux. The growth of clinical isolates in PBMCs was quantitated by reverse transcriptase activity in a 96-well scintillation proximity assay (SPA). Twenty microliters of culture supernatants was mixed with 40 μL of reaction cocktail (62.5 mM Tris-HCl [pH 7.8], 100 mM KCl, 0.0625% NP-40, 2.5 mM dithiothreitol [DTT], 6.25 mM MgCl2, 1 mM EGTA, 6.25 μg/mL of poly rA, 2.5 μg/mL of streptavidin SPA beads prebound with biotinylated-dT12-18, and 1 μCi of [^3H]TTP). Mixtures were incubated at 37°C for ∼3 h and quenched with 100 μl of 0.25 M EDTA per well. Luminescence was detected on a Wallac Trilux programmed for tritium counting with SPA beads in opaque plates. The growth of the reporter-free laboratory M-tropic strains and clinical isolates was monitored by a p24 enzyme-linked immunosorbent assay (ELISA; PerkinElmer Life Sciences, Waltham, MA) performed on culture supernatants.
# Maximal percent inhibition values were calculated as MPI = 100 – (mean signals at the 2 highest concentrations of compound/mean signal of 2 no-drug control wells) × 100.
compound,measurement,setting,value
C=C(C)[C@@H]1CC[C@]2(NCCN3CCS(=O)(=O)CC3)CC[C@]3(C)[C@H](CC[C@@H]4[C@@]5(C)CC=C(C6=CC[C@@](CF)(C(=O)O)CC6)C(C)(C)[C@@H]5CC[C@]43C)[C@@H]12 [GSK’254],EC50,"Human immunodeficiency virus 1, 8 HIV-1 laboratory strains (luciferase or p24 endpoints), read-out: mean (standard error of the mean) EC50",0.8 nM
same,EC50,"Human immunodeficiency virus 1, 8 HIV-1 laboratory strains, read-out: EC50 range",0.3 to 1.2 nM
same,EC50,"Human immunodeficiency virus 1, HXB2, HXB2, T tropic, read-out: EC50 ± SD",0.7 ± 0.1 nM
same,EC50,"Human immunodeficiency virus 1, IIIB, IIIB, T tropic, read-out: EC50 ± SD",0.6 ± 0.4 nM
same,EC50,"Human immunodeficiency virus 1, LAI, T tropic, read-out: EC50 ± SD",0.7 ± 0.1 nM
same,EC50,"Human immunodeficiency virus 1, MN, T tropic, read-out: EC50 ± SD",0.3 nM
same,EC50,"Human immunodeficiency virus 1, NL43, NL4-3, T tropic, read-out: EC50 ± SD",0.9 ± 0.2 nM
same,EC50,"Human immunodeficiency virus 1, RF, T tropic, read-out: EC50 ± SD",0.9 ± 0.15 nM
same,EC50,"Human immunodeficiency virus 1, reporter cell line, read-out: EC50 values for T-tropic HIV-1",< 1 nM
